Tested on: HCT116 MTAP-deleted cell lines
Assay: Cell viability assay for HCT116 isogenic pair (CellTitre-Glo, 7 days)
Format: cell-based
Conditions: Homo sapiens, HCT-116, 168 h, 7 days of treatment, cell line not given
Outline: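 HCT116 WT or MTAP-deleted cells, 100 per well, seeded onto pre-spotted PRMT5 inhibitor dose series in RPMI 1640/10% heat-inactivated FBS and grown 7 days at 37° C, 5% CO2. CellTiter-Glo luminescence then read; CC50 (nM) from 4-parameter logistic fit.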

SMILES	CC50 [nM]
Cn1ncc2c(N)nc3cnc(C(=O)N4CC[C@H]5C[C@@H]4c4ccc(Cl)c(F)c45)cc3c21 [Example Ca-42, (4-amino-1-methyl-1H-pyrazolo[4,3-c][1,7]naphthyridin-8-yl)((1R,5S)-7-chloro-6-fluoro-1,3,4,5-tetrahydro-2H-1,5-methanobenzo[c]azepin-2-yl)methanone]	25
C[C@@H]1C[C@@H]2CCc3cc(C(F)(F)F)ccc3[C@@H]2N(C(=O)c2cc3c4c(c(N)nc3cn2)COC4)C1 (racemic) [Example Ca-40, (Rac)-(4-amino-1,3-dihydrofuro[3,4-c][1,7]naphthyridin-8-yl)((3R,4aS,10bR)-3-methyl-8-(trifluoromethyl)-3,4,4a,5,6,10b-hexahydrobenzo[h]quinolin-1(2H)-yl)methanone]	179
Cn1ncc2c3cc(C(=O)N4CCC[C@@H]5Oc6cc(C(F)(F)F)ccc6[C@@H]54)ncc3nc(N)c21 [Example Ca-43, (4-amino-3-methyl-3H-pyrazolo[3,4-c][1,7]naphthyridin-8-yl)((4aS,9bS)-7-(trifluoromethyl)-3,4,4a,9b-tetrahydrobenzofuro[3,2-b]pyridin-1(2H)-yl)methanone]	56
CN(C(=O)c1cc2c(cn1)nc(N)c1cnn(C)c12)[C@H]1c2ccc(C(F)(F)F)cc2[C@@H]2C[C@@H]21 (single isomer, unassigned) [Example Ca-25]	43
Cn1ncc2c(N)nc3cc(F)c(C(=O)N4CCO[C@@H]5Cc6cc(C(F)(F)F)ccc6[C@@H]54)cc3c21 (racemic) [Example Ca-10, (Rac)-(4-amino-7-fluoro-1-methyl-1H-pyrazolo[4,3-c]quinolin-8-yl)(7-(trifluoromethyl)-2,3,9,9a-tetrahydroindeno[2,1-b][1,4]oxazin-4(4aH)-yl)methanone]	10

From US20250154172A1, “PRMT5 INHIBITORS AND USES THEREOF” (Gilead Sciences, Inc., priority 2023, published 2025)
